In patent US12636260B2, “Application of α-asarone in preparation of medicine for preventing or treating hemorrhagic stroke” (CHENGDU XINRUI TAIKANG TECHNOLOGY CO., LTD., priority 2021, dated 2026):

What was measured:
[1] = tested on: mouse bone marrow cells; test: Mouse bone marrow micronucleus test by flow cytometry; assay type: in vivo; settings: mice
Procedure: Experimental grouping and administration: The animals were randomly divided into five groups with 10 […] in each group: blank control group (blank group, administrated blank emulsion with the same volume as the high-dose group of α-asarone), cyclophosphamide group (CTX group, 40 mg/kg), low dose of α-asarone emulsion injection group (prepared by preparation embodiment 7, 100 mg/kg/day, ASA-L group), medium dose of α-asarone emulsion injection group (prepared by preparation embodiment 7, 150 mg/kg/day, ASA-M group), and high dose of α-asarone emulsion injection group (prepared from preparation embodiment 7, 200 mg/kg/day, ASA-H group).
All drugs were administrated through the tail vein for continuous 4 days except for the single injection of the positive control drug cyclophosphamide (CTX) 24 hours before sampling. After 24 hours of the last administration, the mice were sacrificed to separate both femurs. The femoral bone marrow cells were washed with PBS and filtered by 300 mesh nylon cell sieves to prepare a single-cell suspension. The suspension was centrifuged at 1650 rpm for 5 min, and the cell concentration was adjusted to 5×10^6 cells/mL by PBS resuspension. For each sample, 100 μL of the cell suspension was incubated with 400 μL of the PIPES-PI solution (10 mL of PIPES solution (concentration of 3.5 mg/mL)+0.5 mg PI+0.01 mL Triton X-100 (concentration of 0.1%)), gently blown and mixed, at 4° C. in the dark for 30 min and detected by a flow cytometry. […] The higher the value, the stronger the genotoxicity.

[2] = tested on: SAH rats; test: Long-term survival rate of SAH rats; assay type: in vivo, rat; settings: nimodipine injection 1 mg/kg intraperitoneally, 2 hours after modeling then once a day for 14 days
Procedure: The experimental materials, grouping and modeling methods were the same as those in effect embodiment 1. The rats were immediately administrated 2 hours after SAH modeling according to the grouping administration protocol and continued to be administrated once a day for 14 days thereafter, and the survival of the rats was observed and recorded for 14 days. The mortality rate within 24 hours in group S was as high as 53.8%.

[3] = tested on: SAH rats; test: Secondary epilepsy in SAH rats (Racine score, seizures); assay type: in vivo, rat; settings: within 24 hours after SAH, group N, nimodipine injection 1 mg/kg intraperitoneally
Procedure: The experimental materials, grouping, modeling method and administration protocol were the same as those in the effect embodiment 1, and the seizures of rats in each group were observed within 24 hours after SAH.

[4] = tested on: SAH rats; test: Short-term neurological function of SAH rats (Garcia score, beam balance test, bleeding score); assay type: in vivo, rat; settings: for Beam balance score / Garcia score: SAH model, 24 hours after modeling
Procedure: (§1) Experimental grouping: At 2 h after endovascular perforation or collagenase VII injection, Zea Longa score was used to evaluate the neurological function of rats. Successful model rats were randomly divided into groups for administration.
(§2) All groups were administrated through the tail vein injection except for group N administrated intraperitoneally.
The rats were fasted for 12 hours before operation, and were anesthetized with 4% isoflurane, and kept anesthetized with 2% isoflurane. The animals were fixed in the supine position with the body temperature maintained at about 37° C. A traditional skin incision of the neck was performed along the midline. The muscle and fascia were separated along the medial margin of the sternocleidomastoid muscle to expose the right side, then the common carotid artery (CCA), external carotid artery (ECA) and internal carotid artery (ICA) were bluntly separated with disposal lines placed at CCA proximal end, ICA and ECA for use. The CCA proximal end and the ECA were ligated, and the ICA was temporarily clamped with an arterial clip, and then a small hole was poked with a needle at about 4 mm from the bifurcation at the CCA. A nylon suture was introduced into the CCA from the hole and advanced through the ICA after releasing the arterial clip, and the suture was inserted intracranially. […] The suture moved forward for roughly 2 mm to perforate the artery followed by instant withdraw, and then the suture was completely removed and the ICA was ligated. Finally, the incision was cleaned with normal saline and sutured. The sham group conducted the same procedure as the model group except for the perforation. After awakening from anesthesia, the animals were raised normally.
The SAH severity was grading after rat's euthanasia, i.e., completing the evaluation of short-term neurological function. The score was determined by the amount of subarachnoid hemorrhage on the surface of basal cistern and brain tissue which was divided into six parts by the Willis ring composed of basilar artery, anterior cerebral artery, internal carotid artery, posterior cerebral artery and posterior communicating artery. Each part was graded from 0 to 3 points according to the amount of subarachnoid blood clots, i.e., 0 points: no subarachnoid blood; 1 point: a small amount of subarachnoid blood; 2 points: moderate amount of blood clots with recognizable arteries; 3 points: blood clots cover all arteries in the area. All 6 part scores were added up for a total of 18 points. According to the final score, SAH hemorrhage severity could be divided into mild subarachnoid hemorrhage (0 to 7 points), moderate subarachnoid hemorrhage (8 to 12 points), and severe subarachnoid hemorrhage (13 to 18 points). The moderate to severe SAH models were selected for statistical analysis (score≥8 points).
(§3) According to Zea Longa's neurological function score, the rats were scored 2 hours after the operation when they were awake from anesthesia. Successful model rats with a score of 1 to 3 points were enrolled in the group: • 0 points: no neurological deficits with normal activity; • 1 point: inability to fully extend the contralateral forepaw; • 2 points: the animal appears to turn in circles when crawling; • 3 points: the animal tends to lean to the hemiplegic side; • 4 points: the animal cannot walk spontaneously or loses consciousness. 1.4 Assessment of Short-Term Neurological Function
The neurological function of rats was comprehensively evaluated with Garcia score and beam balance test 24 hours after modeling. The criteria of Garcia score are shown in Table 1, which evaluates the movement, sensation, climbing and limb symmetry of the rats with the score range of 3 to 18 points. The lower the score, the more severe the neurological injury. The criteria of the beam balance test are shown in Table 2, which evaluated the proprioception and body coordination of rats with the score range of 0 to 6 points. […]

[5] = tested on: ICH rats; test: Short-term neurological function of ICH rats (Garcia score, beam balance test); assay type: in vivo, rat; settings: for Beam balance score / Garcia score: ICH model, 24 hours after modeling
Procedure: as §1, §2
The rats were fasted for 12 hours before operation, and were anesthetized with 4% isoflurane, and kept anesthetized with 2% isoflurane. The animals were fixed in the prone position in a stereotaxic apparatus with the body temperature maintained at about 37° C. A traditional skin incision of the head was prepared along the midline. According to the stereotaxic atlas of the rat brain translated by Zhuge Qichao (George Paxinos, Charles Watson, Paxinos, Watson, & Zhuge Qichao. The Rat Brain in Stereotaxic Coordinates [M]. People's Medical Publishing House, 2005), the right caudate nucleus of the rat was determined as 0.0 mm anterior, 3.0 mm lateral to the bregma, and 5.5 mm ventral to the cortical surface. After labeling, we drilled an open window in the skull, and 1 μL of 0.5 U collagenase VII was slowly injected for 5 minutes with a microinjector. After the injection, the needle was stagnated for 8 minutes and slowly withdrawn. Then the scalp was sutured after the burr hole of skull was sealed with a sterile bone wax, and the rats were returned to the cage for normal feeding. The sham group conducted the same procedure as the model group, but received an equal volume of physiological saline into the caudate nucleus.
as §3
The neurological function of rats was comprehensively evaluated with Garcia score and beam balance test 24 hours after modeling. The criteria of Garcia score are shown in Table 1, which evaluates the movement, sensation, climbing and limb symmetry of the rats with the score range of 3 to 18 points. The lower the score, the more severe the neurological injury. The criteria of the beam balance test are shown in Table 2, which evaluated the proprioception and body coordination of rats with the score range of 0 to 6 points. The higher the score, the more severe the neurological injury. Scoring was done independently by a technician blinded to the modeling and drug administration.

[6] = CTX group, 40 mg/kg, single injection 24 hours before sampling
[7] = group N, nimodipine injection 1 mg/kg intraperitoneally
[8] = group V, vinpocetine injection 2 mg/kg tail vein
[9] = group B, β-asarone emulsion injection 20 mg/kg tail vein

O=P1(N(CCCl)CCCl)NCCCO1 (centres unmarked) [CTX, cyclophosphamide, reference compound]
MNPCE [1, 6]: 0.86 ± 0.25 | PCE [1, 6]: 36.46 ± 8.01 | fMNPCE (‰) [1, 6]: 24.36 ± 8.03 ‰ | micronucleus rate compared to the blank emulsion group ([1]; cyclophosphamide 40 mg/kg (P<0.01)): significantly higher

COCCOC(=O)C1=C(C)NC(C)=C(C(=O)OC(C)C)C1c1cccc([N+](=O)[O-])c1 (centres unmarked) [nimodipine, reference compound]
Survival rate ([2]; Day 14, group N): 58.3% | 24-hour mortality rate ([2]; group N): 25.0% | Clonic seizures (%) [3]: 18.8% | Racine score [3]: 0.81 ± 1.56 | Tonic seizures (%) [3]: 6.2% | Beam balance score [4, 7]: 3.01 | Garcia score [4, 7]: 11.33 | Beam balance score [5, 7]: 3.89 | Garcia score [5, 7]: 8.92

CCOC(=O)C1=C[C@]2(CC)CCCN3CCc4c(n1c1ccccc41)[C@@H]32 [vinpocetine, reference compound]
Beam balance score [4, 8]: 3.54 | Garcia score [4, 8]: 10.30 | Beam balance score [5, 8]: 3.27 | Garcia score [5, 8]: 10.56

C/C=C\c1cc(OC)c(OC)cc1OC [β-asarone, reference compound]
effect against the neurological impairment ([4]; SAH model rats, group B, β-asarone emulsion injection 20 mg/kg): no obvious effect | Beam balance score [4, 9]: 3.70 | Garcia score [4, 9]: 10.51 | effect against the neurological impairment ([5]; ICH model rats, group B, β-asarone emulsion injection 20 mg/kg): no obvious effect | Beam balance score [5, 9]: 3.76 | Garcia score [5, 9]: 9.12
